Experimental data reported in patent US11306078B2, “Piperidine CXCR7 receptor modulators” (IDORSIA PHARMACEUTICALS LTD., priority 2016, dated 2022).

biological target: human chemokine receptor CXCR7 (Homo sapiens (Human), UniProt P25106); experiment: Tango CXCR7-bla U2OS beta-arrestin recruitment assay (beta-lactamase reporter, FRET), antagonism of CXCL12/SDF1-α; format: cell-based; conditions: antagonistic effect on CXCR7; Tango CXCR7-bla U2OS cells, CXCL12/SDF1-α at its EC80;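 further: compounds preincubated 15 min before CXCL12 addition, then 22 h at 37 °C, FRET emission ratio read with CCF4-AM substrate after 2 h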
Sequence (P25106 whole entry): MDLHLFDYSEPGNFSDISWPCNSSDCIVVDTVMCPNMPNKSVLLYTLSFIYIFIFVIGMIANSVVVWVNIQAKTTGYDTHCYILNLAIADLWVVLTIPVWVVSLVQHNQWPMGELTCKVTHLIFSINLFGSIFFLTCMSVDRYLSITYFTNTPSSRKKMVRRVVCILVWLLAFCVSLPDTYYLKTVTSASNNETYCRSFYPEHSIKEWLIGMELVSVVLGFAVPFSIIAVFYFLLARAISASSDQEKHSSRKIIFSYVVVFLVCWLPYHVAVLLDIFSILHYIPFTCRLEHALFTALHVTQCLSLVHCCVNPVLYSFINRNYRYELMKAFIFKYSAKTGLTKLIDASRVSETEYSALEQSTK

Row | IC50 [nM] | Structure (SMILES)
1 | 50 | C[C@@H](NC(=O)[C@@H]1CN(CC2CC2)CC[C@H]1NC(=O)c1cc(-c2c(F)cc(F)cc2F)on1)C1CCC1 (relative stereo) [Example 1.139, (3R*,4R*)-1-Cyclopropylmethyl-4-{[5-(2,4,6-trifluoro-phenyl)-isoxazole-3-carbonyl]-amino}-piperidine-3-carboxylic acid ((R)-1-cyclobutyl-ethyl)-amide]
2 | 379 | C[C@@H](NC(=O)[C@@H]1CN(C2CCCC2)CC[C@H]1NC(=O)c1cc(-c2ccc(F)cc2F)no1)C1CCC1 (relative stereo) [Example 1.141, (3R*,4R*)-1-Cyclopentyl-4-{[3-(2,4-difluoro-phenyl)-isoxazole-5-carbonyl]-amino}-piperidine-3-carboxylic acid ((R)-1-cyclobutyl-ethyl)-amide]
3 | 54 | C[C@@H](NC(=O)[C@@H]1CN(CC2CC2)CC[C@H]1NC(=O)c1cc(-c2ccc(F)cc2F)no1)c1ccccn1 (relative stereo) [Example 1.154, (3R*,4R*)-1-Cyclopropylmethyl-4-{[3-(2,4-difluoro-phenyl)-isoxazole-5-carbonyl]-amino}-piperidine-3-carboxylic acid ((R)-1-pyridin-2-yl-ethyl)-amide]
4 | 315 | C[C@@H]1CCC[C@H]1N1CC[C@@H](NC(=O)c2cc(-c3ccc(F)cc3F)no2)[C@H](C(=O)N[C@H](C)c2ccccn2)C1 (relative stereo) [Example 1.155, (3R*,4R*)-4-{[3-(2,4-Difluoro-phenyl)-isoxazole-5-carbonyl]-amino}-1-((1RS,2RS)-2-methyl-cyclopentyl)-piperidine-3-carboxylic acid ((R)-1-pyridin-2-yl-ethyl)-amide]
5 | 92 | C[C@@H](NC(=O)[C@@H]1CN(C2CCCCC2)CC[C@H]1NC(=O)c1noc(-c2ccc(F)cc2F)n1)c1ccccn1 (relative stereo) [Example 1.156, (3R*,4R*)-1-Cyclohexyl-4-{[5-(2,4-difluoro-phenyl)-[1,2,4]oxadiazole-3-carbonyl]-amino}-piperidine-3-carboxylic acid ((R)-1-pyridin-2-yl-ethyl)-amide]
6 | 131 | C[C@@H](NC(=O)[C@@H]1CN(C2CCCC2)CC[C@H]1NC(=O)c1noc(-c2ccc(F)cc2F)n1)c1ccccn1 (relative stereo) [Example 1.157, (3R*,4R*)-1-Cyclopentyl-4-{[5-(2,4-difluoro-phenyl)-[1,2,4]oxadiazole-3-carbonyl]-amino}-piperidine-3-carboxylic acid ((R)-1-pyridin-2-yl-ethyl)-amide]
7 | 82 | C[C@@H](NC(=O)[C@@H]1CN(CC2CC2)CC[C@H]1NC(=O)c1noc(-c2ccc(F)cc2F)n1)c1ccccn1 (relative stereo) [Example 1.158, (3R*,4R*)-1-Cyclopropylmethyl-4-{[5-(2,4-difluoro-phenyl)-[1,2,4]oxadiazole-3-carbonyl]-amino}-piperidine-3-carboxylic acid ((R)-1-pyridin-2-yl-ethyl)-amide]
8 | 818 | C[C@@H](NC(=O)[C@@H]1CN(CC2CC2)CC[C@H]1NC(=O)c1cc(-c2ccc(F)cc2F)no1)c1cnccn1 (relative stereo) [Example 1.159, (3R*,4R*)-1-Cyclopropylmethyl-4-{[3-(2,4-difluoro-phenyl)-isoxazole-5-carbonyl]-amino}-piperidine-3-carboxylic acid ((R)-1-pyrazin-2-yl-ethyl)-amide]
9 | 105 | C[C@@H](NC(=O)[C@@H]1CN(CC2CC2)CC[C@H]1NC(=O)c1cc(-c2ccc(F)cc2F)no1)C1CCC1 (relative stereo) [Example 1.161, (3R*,4R*)-1-Cyclopropylmethyl-4-{[3-(2,4-difluoro-phenyl)-isoxazole-5-carbonyl]-amino}-piperidine-3-carboxylic acid ((R)-1-cyclobutyl-ethyl)-amide]
10 | 638 | C[C@@H]1CCC[C@H]1N1CC[C@@H](NC(=O)c2cc(-c3ccc(F)cc3F)no2)[C@H](C(=O)N[C@H](C)C2CCC2)C1 (relative stereo) [Example 1.162, (3R*,4R*)-4-{[3-(2,4-Difluoro-phenyl)-isoxazole-5-carbonyl]-amino}-1-((1RS,2RS)-2-Methyl-cyclopentyl)-piperidine-3-carboxylic acid ((R)-1-cyclobutyl-ethyl)-amide]
11 | 728 | C[C@@H]1CCC[C@H]1N1CC[C@@H](NC(=O)c2cn(-c3ccc(F)cc3F)nn2)[C@H](C(=O)NC2(c3ccccn3)CC2)C1 (relative stereo) [Example 1.168, (3R*,4R*)-4-{[1-(2,4-Difluoro-phenyl)-1H-[1,2,3]triazole-4-carbonyl]-amino}-1-((1RS,2RS)-2-Methyl-cyclopentyl)-piperidine-3-carboxylic acid (1-pyridin-2-yl-cyclopropyl)-amide]
12 | 72 | C[C@@H]1CCC[C@H]1N1CC[C@@H](NC(=O)c2cc(-c3c(F)cc(F)cc3F)on2)[C@H](C(=O)NC2(c3ccccn3)CC2)C1 (relative stereo) [Example 1.172, (3R*,4R*)-1-((1RS,2RS)-2-Methyl-cyclopentyl)-4-{[5-(2,4,6-trifluoro-phenyl)-isoxazole-3-carbonyl]-amino}-piperidine-3-carboxylic acid (1-pyridin-2-yl-cyclopropyl)-amide]
13 | 673 | C[C@@H]1CCC[C@H]1N1CC[C@@H](NC(=O)c2cc(-c3ccc(F)cc3F)no2)[C@H](C(=O)NC2(c3ccccn3)CC2)C1 (relative stereo) [Example 1.175, (3R*,4R*)-4-{[3-(2,4-Difluoro-phenyl)-isoxazole-5-carbonyl]-amino}-1-((1RS,2RS)-2-Methyl-cyclopentyl)-piperidine-3-carboxylic acid (1-pyridin-2-yl-cyclopropyl)-amide]
14 | 368 | C[C@@H](NC(=O)[C@]1(C)CN(C2CCCCC2)CC[C@H]1NC(=O)c1cc(-c2ccc(F)cc2F)on1)c1ccccn1 (relative stereo) [Example 5.001, (3R*,4R*)-1-Cyclohexyl-4-{[5-(2,4-difluoro-phenyl)-isoxazole-3-carbonyl]-amino}-3-methyl-piperidine-3-carboxylic Acid ((R)-1-pyridin-2-yl-ethyl)-amide]

The remaining lines, values behind:

Row | Structure (SMILES) | IC50 [nM]
15 | C[C@@H](NC(=O)[C@@H]1CN(C2CCCCC2)CC[C@H]1NC(=O)c1cn(-c2ccc(F)cc2F)nn1)c1cnccn1 (relative stereo) [Example 1.127, (3R*,4R*)-1-Cyclohexyl-4-{[1-(2,4-difluoro-phenyl)-1H-[1,2,3]triazole-4-carbonyl]-amino}-piperidine-3-carboxylic acid ((R)-1-pyrazin-2-yl-ethyl)-amide] | 360
16 | C[C@@H](NC(=O)[C@@H]1CN(C2CCCC2)CC[C@H]1NC(=O)c1cn(-c2ccc(F)cc2F)nn1)c1cnccn1 (relative stereo) [Example 1.128, (3R*,4R*)-1-Cyclopentyl-4-{[1-(2,4-difluoro-phenyl)-1H-[1,2,3]triazole-4-carbonyl]-amino}-piperidine-3-carboxylic acid ((R)-1-pyrazin-2-yl-ethyl)-amide] | 124
17 | C[C@@H](NC(=O)[C@@H]1CN(CC2CC2)CC[C@H]1NC(=O)c1cc(-c2c(F)cc(F)cc2F)on1)c1cnccn1 (relative stereo) [Example 1.131, (3R*,4R*)-1-Cyclopropylmethyl-4-{[5-(2,4,6-trifluoro-phenyl)-isoxazole-3-carbonyl]-amino}-piperidine-3-carboxylic acid ((R)-1-pyrazin-2-yl-ethyl)-amide] | 102
18 | C[C@@H]1CCC[C@H]1N1CC[C@@H](NC(=O)c2cc(-c3c(F)cc(F)cc3F)on2)[C@H](C(=O)N[C@H](C)c2cnccn2)C1 (relative stereo) [Example 1.132, (3R*,4R*)-1-((1RS,2RS)-2-Methyl-cyclopentyl)-4-{[5-(2,4,6-trifluoro-phenyl)-isoxazole-3-carbonyl]-amino}-piperidine-3-carboxylic acid ((R)-1-pyrazin-2-yl-ethyl)-amide] | 410
19 | C[C@@H](NC(=O)[C@@H]1CN(C2CCCCC2)CC[C@H]1NC(=O)c1cc(-c2ccc(F)cc2F)no1)c1cnccn1 (relative stereo) [Example 1.133, (3R*,4R*)-1-Cyclohexyl-4-{[3-(2,4-difluoro-phenyl)-isoxazole-5-carbonyl]-amino}-piperidine-3-carboxylic acid ((R)-1-pyrazin-2-yl-ethyl)-amide] | 594
20 | C[C@@H](NC(=O)[C@@H]1CN(C2CCCCC2)CC[C@H]1NC(=O)c1cn(-c2ccc(F)cc2F)nn1)C1CCC1 (relative stereo) [Example 1.134, (3R*,4R*)-1-Cyclohexyl-4-{[1-(2,4-difluoro-phenyl)-1H-[1,2,3]triazole-4-carbonyl]-amino}-piperidine-3-carboxylic acid ((R)-1-cyclobutyl-ethyl)-amide] | 266
21 | C[C@@H](NC(=O)[C@@H]1CN(C2CCCC2)CC[C@H]1NC(=O)c1cn(-c2ccc(F)cc2F)nn1)C1CCC1 (relative stereo) [Example 1.135, (3R*,4R*)-1-Cyclopentyl-4-{[1-(2,4-difluoro-phenyl)-1H-[1,2,3]triazole-4-carbonyl]-amino}-piperidine-3-carboxylic acid ((R)-1-cyclobutyl-ethyl)-amide] | 592
22 | C[C@@H](NC(=O)[C@@H]1CN(CC2CC2)CC[C@H]1NC(=O)c1cn(-c2ccc(F)cc2F)nn1)C1CCC1 (relative stereo) [Example 1.136, (3R*,4R*)-1-Cyclopropylmethyl-4-{[1-(2,4-difluoro-phenyl)-1H-[1,2,3]triazole-4-carbonyl]-amino}-piperidine-3-carboxylic acid ((R)-1-cyclobutyl-ethyl)-amide] | 202
23 | C[C@@H]1CCC[C@H]1N1CC[C@@H](NC(=O)c2cn(-c3ccc(F)cc3F)nn2)[C@H](C(=O)N[C@H](C)C2CCC2)C1 (relative stereo) [Example 1.137, (3R*,4R*)-4-{[1-(2,4-Difluoro-phenyl)-1H-[1,2,3]triazole-4-carbonyl]-amino}-1-((1RS,2RS)-2-Methyl-cyclopentyl)-piperidine-3-carboxylic acid ((R)-1-cyclobutyl-ethyl)-amide] | 919
24 | O=C(N[C@@H]1CCN(C2CCCCC2)C[C@H]1C(=O)N[C@H]1C[C@@H]1c1ccccc1)c1cc(-c2c(F)cc(F)cc2F)on1 (single isomer, unassigned) [Example 1.046a] | 474
